In patent US12492223B2, “Peptide compositions capable of binding lanthionine synthetase C-like protein (LanCl) and uses thereof” (priority 2021, dated 2025):
Positions of bridges follow the written chain, without caps; N, C: chain ends. No end group written: not given here.

Key:
A549 cells = assay: A549 proliferation + stress assay (restoration of viability of Taxol-treated cells, CellTiter-Glo); type: cell-based, human; design: key to Estimated Activity in A549 proliferation + stress assay: Inactive: no activity up to 100 μM; WEAK: some or variable restoration of cell viability at 50-100 μM; MODERATE: moderate dose-dependent restoration of cell viability at >25 μM; STRONG: clear dose-dependent restoration of cell viability from 1-5 μM upwards; conditions: for Estimated Activity in A549 proliferation + stress assay: 350 μM Taxol, 16 hours, peptide 1-100 μM; for restoration of A549 viability: Taxol-treated A549 cells
Procedure: An assay was developed that involves stressing cells with a dose of the chemotherapeutic agent, Taxol, that causes a 50% inhibition of cell viability when compared to untreated cells. Peptides were then added to the cell cultures at increasing concentrations to assess their ability to restore the viability of the Taxol-treated cells.
Briefly, A549 cells were cultured in opaque-walled multiwell plates with 50000 A549 cells/well in culture medium (DMEM medium ref 11960-044 Thermoscientific, +10% FBS ref 10270-106 Gibco, Thermoscientific, +1% Na pyruvate ref S8636-100 ML, Sigma, +1%, Glutamax ref35050061, Thermoscientific, +1% Penicillin-Streptomycin, ref 11074440001, Sigma) 100 μl per well for 96-well plates. Control wells containing medium without cells were used to obtain a value for background luminescence. Cells were incubated at 37° C. in 5% CO2 overnight.
100 μL of medium+DMSO+peptides or medium+Taxol+peptides (at the different concentrations) were added to each well and incubated for 16 hours at 37° C. 5% CO2.
Cell morphology, viability and confluency were assessed by phase contrast microscopy. The CellTiter-Glo® Luminescent Cell Viability Assay (G7571, Promega—a homogeneous method to determine the number of viable cells in culture based on quantitation of the ATP present) was then used to quantify the number of metabolically active cells, according to the manufacturer's instructions. 100 μl volume of CellTiter-Glo® Reagent was added to the 100 μL volume of cell culture medium present in each well, Contents were mixed for 2 minutes on an orbital shaker to induce cell lysis and after incubating the plates at room temperature for 10 minutes to stabilize luminescent signal luminescence was recorded with an integration time of 0.5 seconds using a CLARIOstar multi well luminometer (BMG Labtech)

HKx31 (H3N2) = type: in vivo, mice; design: key to PMN activity score / Viral titre activity score / BAL IL-6 activity score: 0: inactive; 1: less active than the peptide of SEQ ID NO:38; 2: comparable or more active than the peptide of SEQ ID NO:38; conditions: for IL-6 levels in the BAL fluid / viral titres: 10 mg/kg single dose; for viral titres: day 3; for BAL IL-6 activity score / PMN activity score / Viral titre activity score: mouse, in vivo, 10 mg/kg; for reducing the PMN infiltrate in BAL fluid, compared with the peptide of SEQ ID NO:38: single 10 mg/kg dose

Substance: 8 (CSGRVSECGF; disulfide 1-8) [compound 8]
- Estimated Activity in A549 proliferation + stress assay (A549 cells): Inactive

Substance: 9 (RSVEGS) [compound 9]
- IL-6 levels in the BAL fluid (HKx31 (H3N2)): as effective
- viral titres (HKx31 (H3N2)): effective
- BAL IL-6 activity score (HKx31 (H3N2)): 2
- PMN activity score (HKx31 (H3N2)): 2
- Viral titre activity score (HKx31 (H3N2)): 2
- reducing the PMN infiltrate in BAL fluid, compared with the peptide of SEQ ID NO:38 (HKx31 (H3N2)): as effective
- Estimated Activity in A549 proliferation + stress assay (A549 cells): STRONG (clear dose-dependent restoration of cell viability from 1-5 μM upwards)
- restoration of A549 viability (A549 cells): restored the Taxol-induced loss of cell viability

Substance: 11 (SCRSRPVESSC) [compound 11]
- Estimated Activity in A549 proliferation + stress assay (A549 cells): Inactive
- restoration of A549 viability (A549 cells): did not

Substance: 42 (KALPRS) [compound 42]
- IL-6 levels in the BAL fluid (HKx31 (H3N2)): as effective
- viral titres (HKx31 (H3N2)): effective
- BAL IL-6 activity score (HKx31 (H3N2)): 2
- PMN activity score (HKx31 (H3N2)): 2
- Viral titre activity score (HKx31 (H3N2)): 2
- reducing the PMN infiltrate in BAL fluid, compared with the peptide of SEQ ID NO:38 (HKx31 (H3N2)): as effective
- Estimated Activity in A549 proliferation + stress assay (A549 cells): STRONG (clear dose-dependent restoration of cell viability from 1-5 μM upwards)
- restoration of A549 viability (A549 cells): partially restore A549 viability

Substance: 59 (RALNS) [compound 59]
- BAL IL-6 activity score (HKx31 (H3N2)): 2
- PMN activity score (HKx31 (H3N2)): 2
- Viral titre activity score (HKx31 (H3N2)): 2
- Estimated Activity in A549 proliferation + stress assay (A549 cells): WEAK-MODERATE
